According to ChEMBL document CHEMBL4411322 (J Med Chem, 2019):
Non-standard residues stand in square brackets, D forms with d. Residues, ends and D or L forms follow the SMILES beside them. dNMeF = CN[C@H](Cc1ccccc1)C(=O)O

Experiments:
Integrin alpha-V/beta-8 = Integrin alpha-V/beta-8 (Homo sapiens, UniProt P06756+P26012); test: Inhibition of LAP binding to human integrin alphavbeta8 receptor after 1 hr by solid-phase binding assay; format: protein-complex assay
Integrin alpha-V/beta-6 = Integrin alpha-V/beta-6 (Homo sapiens, UniProt P06756+P18564); test: Inhibition of LAP binding to human integrin alphavbeta6 receptor after 1 hr by solid-phase binding assay; format: protein-complex assay
Chain of Integrin alpha-V/beta-6 (P06756 31-889 limits assumed): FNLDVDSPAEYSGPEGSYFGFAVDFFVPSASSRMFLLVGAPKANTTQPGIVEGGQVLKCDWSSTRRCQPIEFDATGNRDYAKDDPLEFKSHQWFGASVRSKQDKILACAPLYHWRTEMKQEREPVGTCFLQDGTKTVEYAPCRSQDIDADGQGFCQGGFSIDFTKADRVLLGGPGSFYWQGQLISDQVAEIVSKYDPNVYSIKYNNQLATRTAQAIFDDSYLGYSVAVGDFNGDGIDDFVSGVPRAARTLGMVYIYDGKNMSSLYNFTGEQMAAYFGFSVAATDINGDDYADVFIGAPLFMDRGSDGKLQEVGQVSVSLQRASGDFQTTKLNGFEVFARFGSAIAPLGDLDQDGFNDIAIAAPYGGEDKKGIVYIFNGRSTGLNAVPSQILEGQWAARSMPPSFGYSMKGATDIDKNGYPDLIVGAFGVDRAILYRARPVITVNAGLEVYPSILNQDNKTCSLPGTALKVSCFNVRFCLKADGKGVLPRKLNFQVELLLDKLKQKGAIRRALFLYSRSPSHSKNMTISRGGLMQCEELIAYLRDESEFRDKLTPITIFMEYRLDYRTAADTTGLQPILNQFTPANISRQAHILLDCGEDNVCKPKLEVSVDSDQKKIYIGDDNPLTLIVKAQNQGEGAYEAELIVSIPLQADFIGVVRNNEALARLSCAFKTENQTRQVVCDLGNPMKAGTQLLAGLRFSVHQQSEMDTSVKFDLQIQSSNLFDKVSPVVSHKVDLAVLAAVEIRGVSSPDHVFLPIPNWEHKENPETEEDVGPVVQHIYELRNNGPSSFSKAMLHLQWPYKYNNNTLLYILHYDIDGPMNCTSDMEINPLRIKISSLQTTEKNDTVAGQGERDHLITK
Chain of Integrin alpha-V/beta-6 (P06756 891-1048 limits assumed): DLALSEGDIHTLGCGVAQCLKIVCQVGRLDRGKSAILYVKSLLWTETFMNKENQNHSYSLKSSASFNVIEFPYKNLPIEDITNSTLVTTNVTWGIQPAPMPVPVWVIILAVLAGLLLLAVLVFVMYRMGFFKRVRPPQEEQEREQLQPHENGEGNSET
Chain of Integrin alpha-V/beta-6 (P18564 22-788 limits assumed): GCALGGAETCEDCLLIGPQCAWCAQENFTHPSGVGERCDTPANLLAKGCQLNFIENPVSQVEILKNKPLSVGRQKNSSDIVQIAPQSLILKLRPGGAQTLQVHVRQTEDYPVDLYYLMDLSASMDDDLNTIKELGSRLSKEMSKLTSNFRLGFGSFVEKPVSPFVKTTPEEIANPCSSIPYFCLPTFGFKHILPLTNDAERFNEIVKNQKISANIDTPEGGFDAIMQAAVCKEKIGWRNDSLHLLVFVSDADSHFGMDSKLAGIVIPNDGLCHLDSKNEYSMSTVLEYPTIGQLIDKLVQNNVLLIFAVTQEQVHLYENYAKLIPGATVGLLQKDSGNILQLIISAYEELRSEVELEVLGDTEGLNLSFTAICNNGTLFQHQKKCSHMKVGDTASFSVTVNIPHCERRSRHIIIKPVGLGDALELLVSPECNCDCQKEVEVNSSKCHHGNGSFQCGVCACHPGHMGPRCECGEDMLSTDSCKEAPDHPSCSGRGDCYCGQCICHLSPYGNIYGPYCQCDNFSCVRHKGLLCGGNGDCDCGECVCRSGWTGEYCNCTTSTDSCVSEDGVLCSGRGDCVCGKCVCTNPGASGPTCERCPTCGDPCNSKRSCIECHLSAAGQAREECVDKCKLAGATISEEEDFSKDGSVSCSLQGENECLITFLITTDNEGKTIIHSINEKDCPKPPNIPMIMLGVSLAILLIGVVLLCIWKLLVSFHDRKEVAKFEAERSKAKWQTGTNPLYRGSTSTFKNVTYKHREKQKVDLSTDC

Homo sapiens = organism: Homo sapiens; test: Selectivity ratio of IC50 for human integrin alphavbeta6 receptor to IC50 for human integrin alphavbeta8 receptor

Chain of Integrin alpha-V/beta-8 (P06756 31-889 limits assumed): as the sequence (P06756 31-889 limits assumed) above
Chain of Integrin alpha-V/beta-8 (P06756 891-1048 limits assumed): as the sequence (P06756 891-1048 limits assumed) above
Chain of Integrin alpha-V/beta-8 (P26012 43-769 limits assumed): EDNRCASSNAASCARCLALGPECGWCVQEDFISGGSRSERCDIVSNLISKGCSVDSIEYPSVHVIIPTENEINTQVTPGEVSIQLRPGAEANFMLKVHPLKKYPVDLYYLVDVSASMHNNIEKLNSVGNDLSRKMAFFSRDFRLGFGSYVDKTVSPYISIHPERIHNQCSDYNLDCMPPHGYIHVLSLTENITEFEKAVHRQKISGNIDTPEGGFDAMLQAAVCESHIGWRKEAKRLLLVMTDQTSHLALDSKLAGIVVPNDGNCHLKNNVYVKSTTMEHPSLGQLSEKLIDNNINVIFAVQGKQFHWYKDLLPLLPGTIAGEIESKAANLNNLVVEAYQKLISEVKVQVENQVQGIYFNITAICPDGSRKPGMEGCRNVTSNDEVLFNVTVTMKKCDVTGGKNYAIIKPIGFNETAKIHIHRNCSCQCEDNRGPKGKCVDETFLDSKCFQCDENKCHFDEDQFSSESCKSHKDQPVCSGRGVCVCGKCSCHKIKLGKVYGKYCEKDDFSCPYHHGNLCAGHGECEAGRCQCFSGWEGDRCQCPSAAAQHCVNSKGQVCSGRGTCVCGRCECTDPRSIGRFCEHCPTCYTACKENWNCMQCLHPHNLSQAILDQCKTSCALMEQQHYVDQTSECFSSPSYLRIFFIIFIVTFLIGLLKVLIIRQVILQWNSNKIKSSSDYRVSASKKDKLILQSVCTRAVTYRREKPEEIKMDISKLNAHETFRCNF

Row | IC50 (Integrin alpha-V/beta-8; read-out: IC50) | IC50 (Integrin alpha-V/beta-6; read-out: IC50) | Ratio IC50 (Homo sapiens) | IC50 (Integrin alpha-V/beta-6) | IC50 (Integrin alpha-V/beta-8) | Compound
1 | 90.3 nM | 48.4 nM |  |  |  | CC(C)C[C@@H]1NC(=O)[C@H](CC(=O)O)NC(=O)CNC(=O)[C@H](CCCNC(=N)N)NC(=O)[C@@H](c2ccccc2)NC(=O)[C@H](C)NC(=O)[C@@H]2CCCN2C(=O)[C@H]2CCCN2C1=O
2 | 4340 nM | 826 nM |  |  |  | C[C@@H]1NC(=O)[C@@H]2CCCN2C(=O)[C@H]2CCCN2C(=O)[C@H](CCCCN)NC(=O)[C@H](CC(=O)O)NC(=O)CNC(=O)[C@H](CCCNC(=N)N)NC(=O)[C@H](Cc2ccccc2)NC1=O
3 |  |  |  | Not Active | Not Active | CC(C)C[C@@H]1NC(=O)[C@H](CC(=O)O)NC(=O)[C@@H]([C@H](C)O)NC(=O)[C@H](CCCNC(=N)N)NC(=O)[C@H](Cc2ccccc2)NC(=O)[C@H](C)NC(=O)[C@@H]2CCCN2C(=O)[C@H]2CCCN2C1=O
4 | 6.4 nM | 29.6 nM | 4.6 |  |  | CC(C)C[C@@H]1NC(=O)[C@H](CC(=O)O)NC(=O)CNC(=O)[C@H](CCCNC(=N)N)NC(=O)[C@H](c2ccccc2)NC(=O)[C@H](C)NC(=O)[C@@H]2CCCN2C(=O)[C@H]2CCCN2C1=O
5 | 169 nM | 707 nM | 4.2 |  |  | CC[C@H](C)[C@@H]1NC(=O)[C@H](CC(=O)O)NC(=O)CNC(=O)[C@H](CCCNC(=N)N)NC(=O)[C@H](Cc2ccccc2)NC(=O)[C@H](C)NC(=O)[C@@H]2CCCN2C(=O)[C@H]2CCCN2C1=O
6 | 59.4 nM | 112 nM | 1.9 |  |  | CC(C)C[C@@H]1NC(=O)[C@H](CC(=O)O)NC(=O)CNC(=O)[C@H](CCCNC(=N)N)NC(=O)[C@@H](C)NC(=O)[C@H](C)NC(=O)[C@@H]2CCCN2C(=O)[C@H]2CCCN2C1=O
7 | 4.3 nM | 256 nM | 60 |  |  | CC(C)C[C@@H]1NC(=O)[C@H](CC(=O)O)NC(=O)[C@H]([C@@H](C)O)NC(=O)[C@H](CCCNC(=N)N)NC(=O)[C@H](Cc2ccccc2)NC(=O)[C@H](C)NC(=O)[C@@H]2CCCN2C(=O)[C@H]2CCCN2C1=O
8 | 114 nM | 420 nM | 3.7 |  |  | CC(C)C[C@@H]1NC(=O)[C@@H]2CCCN2C(=O)[C@H]2CCCN2C(=O)[C@H](CC(C)C)NC(=O)[C@H](CC(=O)O)NC(=O)CNC(=O)[C@H](CCCNC(=N)N)NC(=O)[C@H](C)NC1=O
9 | 1150 nM | 324 nM |  |  |  | C[C@@H]1NC(=O)[C@@H]2CCCN2C(=O)[C@H]2CCCN2C(=O)[C@H](Cc2ccccc2)NC(=O)[C@H](CC(=O)O)NC(=O)CNC(=O)[C@H](CCCNC(=N)N)NC(=O)[C@H](Cc2ccccc2)NC1=O
10 | 8.1 nM | 114 nM | 14.1 |  |  | CC(C)C[C@@H]1NC(=O)[C@H](CC(=O)O)NC(=O)CNC(=O)[C@H](CCCNC(=N)N)NC(=O)[C@H](C)NC(=O)[C@H](C)NC(=O)[C@@H]2CCCN2C(=O)[C@H]2CCCN2C1=O
11 | 467 nM |  |  | Not Active |  | CC(C)[C@@H]1NC(=O)[C@H](CC(=O)O)NC(=O)CNC(=O)[C@H](CCCNC(=N)N)NC(=O)[C@H](Cc2ccccc2)NC(=O)[C@H](C)NC(=O)[C@@H]2CCCN2C(=O)[C@H]2CCCN2C1=O
12 |  | 559 nM |  |  | Not Active | CC(C)C[C@H]1NC(=O)[C@H](CC(=O)O)NC(=O)CNC(=O)[C@H](CCCNC(=N)N)NC(=O)[C@H](Cc2ccccc2)NC(=O)[C@H](C)NC(=O)[C@@H]2CCCN2C(=O)[C@H]2CCCN2C1=O

Second part, the compound before the results:

Row | Compound | IC50 (Integrin alpha-V/beta-8; read-out: IC50) | IC50 (Integrin alpha-V/beta-6; read-out: IC50) | Ratio IC50 (Homo sapiens) | IC50 (Integrin alpha-V/beta-6) | IC50 (Integrin alpha-V/beta-8)
13 | CC(=O)NCCCCCCNC(=N)NCCC[C@@H]1NC(=O)[C@H](CC(C)C)NC(=O)CNC(=O)[C@@H]2CCCN2C(=O)[C@H]2CCCN2C(=O)[C@H](CC(C)C)NC(=O)[C@H](CC(=O)O)NC(=O)CNC1=O | 230 nM |  |  |  | 
14 | CC(C)C[C@@H]1NC(=O)[C@H](C)NC(=O)[C@H](C)NC(=O)[C@@H]2CCCN2C(=O)[C@H]2CCCN2C(=O)[C@H](CC(C)C)NC(=O)[C@H](CC(=O)O)NC(=O)[C@H]([C@@H](C)O)NC(=O)[C@H](CCCNC(=N)N)NC(=O)[C@H](C)NC1=O | 127 nM | 720 nM | 5.7 |  | 
15 | CC(C)C[C@@H]1NC(=O)[C@H](C)NC(=O)[C@H](CCCCN)N(C)C(=O)[C@H]2CCCN2C(=O)[C@H](CC(C)C)NC(=O)[C@H](CC(=O)O)NC(=O)CNC(=O)[C@H](CCCNC(=N)N)NC1=O | 44 nM | 62 nM | 1.4 |  | 
16 | CC(=O)NCCCC[C@@H]1C(=O)N2CCC[C@H]2C(=O)NCC(=O)N[C@@H](CC(C)C)C(=O)N[C@@H](CCCNC(=N)N)C(=O)NCC(=O)N[C@@H](CC(=O)O)C(=O)N[C@@H](CC(C)C)C(=O)N1C | 57 nM | 215 nM | 3.8 |  | 
17 | CC(C)C[C@@H]1NC(=O)[C@H](CO)NC(=O)[C@@H]2CCCN2C(=O)[C@H]2CCCN2C(=O)[C@H](CC(C)C)NC(=O)[C@H](CC(=O)O)NC(=O)CNC(=O)[C@H](CCCNC(=N)N)NC1=O (cyclo(RGDL[dP]PSL)) |  |  | 15 |  | 
18 | CC(C)C[C@@H]1NC(=O)[C@H](CC(=O)O)NC(=O)[C@H]([C@@H](C)O)NC(=O)[C@H](CCCNC(=N)N)NC(=O)[C@H](C)NC(=O)[C@@H]2CCCN2C(=O)[C@H]2CCCN2C(=O)[C@H](CC(C)C)NC(=O)[C@H](C)NC(=O)[C@H](C)NC1=O | 1290 nM | 264 nM |  |  | 
19 | CC[C@H](C)[C@@H]1NC(=O)[C@H](C)NC(=O)[C@@H]2CCCN2C(=O)[C@H]2CCCN2C(=O)[C@H](CC(C)C)NC(=O)[C@H](CC(=O)O)NC(=O)CNC(=O)[C@H](CCCNC(=N)N)NC1=O | 1.54 nM | 40.2 nM | 26.1 |  | 
20 | CC(C)C[C@@H]1NC(=O)[C@H](CC(=O)O)NC(=O)CNC(=O)[C@H](CCCNC(=N)N)NC(=O)CNC(=O)[C@H](C)NC(=O)[C@@H]2CCCN2C(=O)[C@H]2CCCN2C1=O | 15.9 nM | 42.4 nM | 2.7 |  | 
21 | CC(C)C[C@@H]1NC(=O)[C@H](CC(=O)O)NC(=O)[C@H]([C@@H](C)O)NC(=O)[C@H](CCCNC(=N)N)NC(=O)[C@H](C)NC(=O)[C@H](CC(C)C)NC(=O)[C@@H]2CCCN2C(=O)[C@H]2CCCN2C(=O)[C@H](C)NC(=O)[C@H](C)NC1=O | 153 nM | 94.5 nM |  |  | 
22 | CC(C)C[C@@H]1NC(=O)[C@@H]2CCCN2C(=O)[C@H]2CCCN2C(=O)[C@H](CC(C)C)NC(=O)[C@H](CC(=O)O)NC(=O)CNC(=O)[C@H](CCCNC(=N)N)NC(=O)[C@H](C)NC(=O)[C@H](C)NC(=O)[C@H](C)NC1=O | 631 nM | 889 nM | 1.4 |  | 
23 | CC(=O)NC1C[C@H]2C(=O)NCC(=O)N[C@@H](CC(C)C)C(=O)N[C@@H](CCCNC(=N)N)C(=O)NCC(=O)N[C@@H](CC(=O)O)C(=O)N[C@@H](CC(C)C)C(=O)N3CCC[C@@H]3C(=O)N2C1 (some centres undefined) | 10.5 nM | 223 nM | 21 |  | 
24 | CC(C)C[C@@H]1NC(=O)[C@H](C)NC(=O)[C@@H]2CCCN2C(=O)[C@H]2CCCN2C(=O)[C@H](C)NC(=O)[C@H](CC(C)C)NC(=O)[C@H](CC(=O)O)NC(=O)CNC(=O)[C@H](CCCNC(=N)N)NC(=O)[C@H](C)NC1=O | 1110 nM | 69.9 nM |  |  | 
25 | CC(C)C[C@@H]1NC(=O)[C@H](C)NC(=O)[C@H](C(C)C)N(C)C(=O)[C@H]2CCCN2C(=O)[C@H](CC(C)C)NC(=O)[C@H](CC(=O)O)NC(=O)CNC(=O)[C@H](CCCNC(=N)N)NC1=O | 44 nM | 70 nM | 1.6 |  | 
26 | CC(=O)NCCCCCCN1C(=O)[C@H]2CCCN2C(=O)[C@H](CC(C)C)NC(=O)[C@H](CC(=O)O)NC(=O)CNC(=O)[C@H](CCCNC(=N)N)NC(=O)[C@H](CC(C)C)NC(=O)CNC(=O)[C@@H]1C | 20 nM |  |  |  | 
27 | CC(C)C[C@@H]1NC(=O)[C@H](C)NC(=O)[C@H](C)NC(=O)[C@H](CC(C)C)NC(=O)[C@H](CC(=O)O)NC(=O)[C@H]([C@@H](C)O)NC(=O)[C@H](CCCNC(=N)N)NC(=O)[C@@H]2CCCN2C(=O)[C@H]2CCCN2C(=O)[C@H](C)NC1=O | 3080 nM | 1550 nM |  |  | 
28 | CCCCCCNC1C[C@H]2C(=O)NCC(=O)N[C@@H](CC(C)C)C(=O)N[C@@H](CCCNC(=N)N)C(=O)NCC(=O)N[C@@H](CC(=O)O)C(=O)N[C@@H](CC(C)C)C(=O)N3CCC[C@@H]3C(=O)N2C1 (some centres undefined) | 12.8 nM | 204 nM | 16 |  | 
29 | CC(C)C[C@@H]1NC(=O)[C@H](C)NC(=O)[C@@H]2CCCN2C(=O)[C@@H](Cc2ccccc2)N(C)C(=O)[C@H](CC(C)C)NC(=O)[C@H](CC(=O)O)NC(=O)CNC(=O)[C@H](CCCNC(=N)N)NC1=O (cyclo(RGDL[dNMeF]PAL)) |  |  | 15 |  | 
30 | CC(=O)NCCCCN1C(=O)[C@H]2CCCN2C(=O)[C@H](CC(C)C)NC(=O)[C@H](CC(=O)O)NC(=O)CNC(=O)[C@H](CCCNC(=N)N)NC(=O)[C@H](CC(C)C)NC(=O)CNC(=O)[C@@H]1C | 27 nM |  |  |  | 
31 | CC(C)C[C@@H]1NC(=O)[C@H](C)NC(=O)[C@@H]2CCCN2C(=O)[C@H]2CCCN2C(=O)[C@H](C)NC(=O)[C@H](CC(C)C)NC(=O)[C@H](CC(=O)O)NC(=O)[C@H]([C@@H](C)O)NC(=O)[C@H](CCCNC(=N)N)NC(=O)[C@H](C)NC1=O | 8410 nM | 495 nM |  |  | 
32 | CC(C)C[C@@H]1NC(=O)[C@H](CC(=O)O)NC(=O)CNC(=O)[C@H](CCCNC(=N)N)NC(=O)[C@H](C)NC(=O)[C@@H]2CCCN2C(=O)[C@H]2CCCN2C(=O)[C@H](CC(C)C)NC(=O)[C@H](C)NC(=O)[C@H](C)NC1=O (cyclo(RGDLAAL[dP]PA)) | 88.6 nM |  |  |  | 
33 | CC(C)C[C@@H]1NC(=O)[C@H](CC(=O)O)NC(=O)CNC(=O)[C@H](CCCNC(=N)N)NC(=O)[C@H](C)NC(=O)[C@H](CC(C)C)NC(=O)[C@@H]2CCCN2C(=O)[C@H]2CCCN2C(=O)[C@H](C)NC(=O)[C@H](C)NC1=O | 109 nM | 13.4 nM |  |  | 
34 | CC(C)C[C@@H]1NC(=O)[C@H](C)NC(=O)[C@H](C)NC(=O)[C@H](CC(C)C)NC(=O)[C@H](CC(=O)O)NC(=O)CNC(=O)[C@H](CCCNC(=N)N)NC(=O)[C@@H]2CCCN2C(=O)[C@H]2CCCN2C(=O)[C@H](C)NC1=O | 614 nM | 14.5 nM |  |  | 
35 | CC(C)C[C@@H]1NC(=O)[C@H](CC(=O)O)NC(=O)CNC(=O)[C@H](CCCNC(=N)N)NC(=O)[C@H](C)NC(=O)[C@@H]2CCCN2C(=O)[C@H]2CCCN2C1=O (cyclo(ARGDL[dP]P)) | 197 nM |  | 2.1 |  | 
